Results as given in PMC7914897, “Cytotoxic Potential of a-Azepano- and 3-Amino-3,4-SeCo-Triterpenoids” (International Journal of Molecular Sciences, 2021).

Legend:
A498 (Renal cancer) = experiment: NCI-60 screen (SRB, 48 h); conditions: Homo sapiens
K-562 (Leukemia) = experiment: NCI-60 screen (SRB, 48 h); conditions: Homo sapiens
Melanoma subpanel = experiment: NCI-60 screen, subpanel; conditions: Homo sapiens
CNS cancer subpanel = experiment: NCI-60 screen, subpanel; conditions: Homo sapiens
[1] = system: FaDu (hypopharyngeal carcinoma); experiment: SRB cytotoxicity assay, 72 h; format: cell-based, human; conditions: Homo sapiens, cut-off 30 µM, read-out: EC50
Description: (§1) The cytotoxicity of compounds 1–20 was evaluated by means of a colorimetric sulforhodamine B (SRB) assay. For all compounds, the EC50 values were determined for the human tumor cell lines A375 (malignant melanoma), HT29 (colorectal carcinoma), MCF-7 (breast carcinoma), A2780 (ovarian carcinoma), FaDu (hypopharyngeal carcinoma), and NIH 3T3 (non-malignant mouse fibroblasts).
(§2) In short, exponentially growing cells were seeded into 96-well plates on day 0 at the appropriate cell densities to prevent confluence of the cells during the period of experiment. After 24 h, the cells were treated with serial dilutions of the compounds (0–30 µM) for 72 h. The final concentration of DMSO never exceeded 0.5%, which was non-toxic to the cells. After a 72 h treatment, the supernatant medium from the 96-well plates was discarded, and the cells were fixed with 10% TCA. For a thorough fixation, the plates were allowed to rest at 4 °C. After fixation, the cells were washed in a strip washer. The washing was done four times with water using alternate dispensing and aspiration procedures. The plates were then dyed with 100 µL of 0.4% SRB for about 20 min. After dying, the plates were washed with 1% acetic acid to remove the excess of the dye and allowed to air-dry overnight. Tris base solution (200 µL, 10 mM) was added to each well and absorbance was measured at λ = 570 nm (using a 96 well plate reader, Tecan Spectra, Crailsheim, Germany). The percentages of surviving cells relative to untreated controls were determined.

MCF-7 (breast carcinoma) = experiment: SRB cytotoxicity assay, 72 h; format: cell-based, human; conditions: Homo sapiens, MCF7; MCF-7, 72 h, cut-off 30 µM; read-out: EC50
Description: as §1, §2

[2] = system: HT29 (colorectal carcinoma); experiment: SRB cytotoxicity assay, 72 h; format: cell-based, human; conditions: Homo sapiens, HT-29; HT29, 72 h, cut-off 30 µM; read-out: EC50
Description: as §1, §2

[3] = system: A375 (malignant melanoma); experiment: SRB cytotoxicity assay, 72 h; format: cell-based, human; conditions: Homo sapiens, A-375, 72 h, A375, 72 h, cut-off 30 µM; read-out: EC50
Description: as §1, §2

[4] = system: A2780 (ovarian carcinoma); experiment: SRB cytotoxicity assay, 72 h; format: cell-based, human; conditions: Homo sapiens; A2780, 72 h, cut-off 30 µM; read-out: EC50
Description: as §1, §2

SF-295 (CNS cancer) = experiment: NCI-60 screen (SRB, 48 h); conditions: Homo sapiens
HT29 (Colon cancer) = experiment: NCI-60 screen (SRB, 48 h); conditions: Homo sapiens
CCRF-CEM (Leukemia) = experiment: NCI-60 screen (SRB, 48 h); conditions: Homo sapiens
BT-549 (Breast cancer) = experiment: NCI-60 screen (SRB, 48 h); format: cell-based; conditions: Homo sapiens
[5] = system: NIH 3T3 (non-malignant mouse fibroblasts); experiment: SRB cytotoxicity assay, 72 h; format: cell-based; conditions: Mus musculus, NIH3T3; NIH 3T3, 72 h, cut-off 30 µM; read-out: EC50
Description: as §1, §2

MALME-3M (Melanoma) = experiment: NCI-60 screen (SRB, 48 h); conditions: Homo sapiens
NSC lung cancer subpanel = experiment: NCI-60 screen, subpanel; conditions: Homo sapiens
SN12C (Renal cancer) = experiment: NCI-60 screen (SRB, 48 h); conditions: Homo sapiens
HCT-116 (Colon cancer) = experiment: NCI-60 screen (SRB, 48 h); conditions: Homo sapiens
MDA-MB-435 (Melanoma) = experiment: NCI-60 screen (SRB, 48 h); format: cell-based
UO-31 (Renal cancer) = experiment: NCI-60 screen (SRB, 48 h); conditions: Homo sapiens
SF-539 (CNS cancer) = experiment: NCI-60 screen (SRB, 48 h); conditions: Homo sapiens
KM12 (Colon cancer) = experiment: NCI-60 screen (SRB, 48 h); conditions: Homo sapiens
MCF7 (Breast cancer) = experiment: NCI-60 screen (SRB, 48 h); conditions: Homo sapiens
Prostate cancer subpanel = experiment: NCI-60 screen, subpanel; conditions: Homo sapiens
SK-MEL-2 (Melanoma) = experiment: NCI-60 screen (SRB, 48 h); conditions: Homo sapiens

## C=C(C)[C@@H]1CC[C@]2(C)[C@H](C=CC3=C4C[C@@](C)(CO)CC[C@]4(C)CC[C@]32C)[C@@]1(C)CCCN [Compound 20]
A498 (Renal cancer); A498
  GI50: 1.54 µM
A498 (Renal cancer); A498, 48 h, read-out: TGI
  IC (TGI): 2.9 µM
A498 (Renal cancer); A498, read-out: LC50
  CC50: 5.44 µM
K-562 (Leukemia); K562
  GI50: 1.8 µM
K-562 (Leukemia); K562, 48 h, read-out: TGI
  IC (TGI): 5.04 µM
K-562 (Leukemia); K562, read-out: LC50
  CC50: > 100 µM
Melanoma subpanel; 48 h, read-out: TGI MG_MID
  IC (TGI): 3.22 µM
Melanoma subpanel; read-out: GI50 MG_MID
  GI50: 1.71 µM
Melanoma subpanel; read-out: LC50 MG_MID
  CC50: 6.09 µM
CNS cancer subpanel; 48 h, read-out: TGI MG_MID
  IC (TGI): 3.18 µM
CNS cancer subpanel; read-out: GI50 MG_MID
  GI50: 1.67 µM
CNS cancer subpanel; read-out: LC50 MG_MID
  CC50: 6.04 µM
[1]
  EC50: 2.66 ± 0.2 µM
MCF-7 (breast carcinoma)
  EC50: 2.84 ± 0.2 µM
[2]
  EC50: 1.88 ± 0.3 µM
[3]
  EC50: 3.13 ± 0.1 µM
[4]
  EC50: 4.35 ± 0.2 µM
SF-295 (CNS cancer); SF-295
  GI50: 1.78 µM
SF-295 (CNS cancer); SF-295, 48 h, read-out: TGI
  IC (TGI): 3.21 µM
SF-295 (CNS cancer); SF-295, read-out: LC50
  CC50: 5.79 µM
HT29 (Colon cancer); HT-29
  GI50: 1.63 µM
HT29 (Colon cancer); HT-29, 48 h, read-out: TGI
  IC (TGI): 3.28 µM
HT29 (Colon cancer); HT-29, read-out: LC50
  CC50: 6.59 µM
CCRF-CEM (Leukemia)
  GI50: 2.12 µM
CCRF-CEM (Leukemia); 48 h, read-out: TGI
  IC (TGI): 5.56 µM
CCRF-CEM (Leukemia); read-out: LC50
  CC50: > 100 µM
BT-549 (Breast cancer); BT-549
  GI50: 1.64 µM
BT-549 (Breast cancer); BT-549, 48 h
  IC (TGI): 3.07 µM
BT-549 (Breast cancer); BT-549, read-out: LC50 (the source's name)
  CC50: 5.78 µM
[5]
  EC50: 3.46 ± 0.3 µM
MALME-3M (Melanoma)
  GI50: 1.46 µM
MALME-3M (Melanoma); 48 h, read-out: TGI
  IC (TGI): 2.91 µM
MALME-3M (Melanoma); read-out: LC50
  CC50: 5.82 µM
NSC lung cancer subpanel; 48 h, read-out: TGI MG_MID
  IC (TGI): 3.38 µM
NSC lung cancer subpanel; read-out: GI50 MG_MID
  GI50: 1.71 µM
NSC lung cancer subpanel; read-out: LC50 MG_MID
  CC50: 6.24 µM
SN12C (Renal cancer)
  GI50: 1.64 µM
SN12C (Renal cancer); 48 h, read-out: TGI
  IC (TGI): 3.15 µM
SN12C (Renal cancer); read-out: LC50
  CC50: 6.03 µM
HCT-116 (Colon cancer); HCT-116
  GI50: 1.69 µM
HCT-116 (Colon cancer); HCT-116, 48 h, read-out: TGI
  IC (TGI): 3.21 µM
HCT-116 (Colon cancer); HCT-116, read-out: LC50
  CC50: 6.08 µM
MDA-MB-435 (Melanoma); Homo sapiens, MDA-MB-435
  GI50: 1.78 µM
MDA-MB-435 (Melanoma); Homo sapiens, MDA-MB-435, 48 h, read-out: TGI
  IC (TGI): 3.2 µM
MDA-MB-435 (Melanoma); Homo sapiens, MDA-MB-435, read-out: LC50 (the source's name)
  CC50: 5.76 µM
MDA-MB-435 (Melanoma); MDA-MB-435, 1 dose 10 µM
  Growth % of the Most Sensitive Cell Lines: −96.77%
UO-31 (Renal cancer); UO-31
  GI50: 1.34 µM
UO-31 (Renal cancer); UO-31, 48 h, read-out: TGI
  IC (TGI): 2.65 µM
UO-31 (Renal cancer); UO-31, read-out: LC50
  CC50: 5.24 µM
SF-539 (CNS cancer); SF-539
  GI50: 1.73 µM
SF-539 (CNS cancer); SF-539, 48 h, read-out: TGI
  IC (TGI): 3.13 µM
SF-539 (CNS cancer); SF-539, read-out: LC50
  CC50: 5.67 µM
KM12 (Colon cancer); KM12
  GI50: 1.6 µM
KM12 (Colon cancer); KM12, 48 h, read-out: TGI
  IC (TGI): 3.02 µM
KM12 (Colon cancer); KM12, read-out: LC50
  CC50: 5.67 µM
MCF7 (Breast cancer); MCF7
  GI50: 1.6 µM
MCF7 (Breast cancer); MCF7, 48 h, read-out: TGI
  IC (TGI): 3.4 µM
MCF7 (Breast cancer); MCF7, read-out: LC50
  CC50: 7.23 µM
Prostate cancer subpanel; 48 h, read-out: TGI MG_MID
  IC (TGI): 3.22 µM
Prostate cancer subpanel; read-out: GI50 MG_MID
  GI50: 1.71 µM
SK-MEL-2 (Melanoma); SK-MEL-2
  GI50: 1.92 µM
SK-MEL-2 (Melanoma); SK-MEL-2, 48 h, read-out: TGI
  IC (TGI): 3.58 µM
SK-MEL-2 (Melanoma); SK-MEL-2, read-out: LC50
  CC50: 6.66 µM
